Measurements: ChEMBL document CHEMBL4680275, “From Seeds of Apium graveolens Linn. to a Cerebral Ischemia Medicine: The Long Journey of 3-n-Butylphthalide” (J Med Chem, 2020)

Assay: Antioxidant activity assessed as hydroxyl radical scavenging activity incubated for 60 mins in water bath by Fenton reaction-based method
Format: functional

IC50 | SMILES
2.87 mM | CCCCC1OC(=O)c2cc(N3N=C(C)CC3=O)ccc21 (racemic)
3.57 mM | CC1=NN(c2ccccc2)C(=O)C1 [EDARAVONE]
